Experimental data from patent US10414775B2 (Merck Sharp & Dohme Corp., priority 2016, dated 2019).

What follows are compounds tested against T1, Human CYP8B1 (Homo sapiens, UniProt Q9UNU6) (assay: Human Cyp8B1 Liver Microsome Assay). Settings: human liver microsomes; substrate 7α-hydroxy-4-cholesten-3-one, NADPH; 30 min pre-incubation, 45 min reaction; RapidFire MS readout.
T1 construct: tissue Xenotech; host or cells: human liver microsomes
T1 sequence (Q9UNU6 1-501): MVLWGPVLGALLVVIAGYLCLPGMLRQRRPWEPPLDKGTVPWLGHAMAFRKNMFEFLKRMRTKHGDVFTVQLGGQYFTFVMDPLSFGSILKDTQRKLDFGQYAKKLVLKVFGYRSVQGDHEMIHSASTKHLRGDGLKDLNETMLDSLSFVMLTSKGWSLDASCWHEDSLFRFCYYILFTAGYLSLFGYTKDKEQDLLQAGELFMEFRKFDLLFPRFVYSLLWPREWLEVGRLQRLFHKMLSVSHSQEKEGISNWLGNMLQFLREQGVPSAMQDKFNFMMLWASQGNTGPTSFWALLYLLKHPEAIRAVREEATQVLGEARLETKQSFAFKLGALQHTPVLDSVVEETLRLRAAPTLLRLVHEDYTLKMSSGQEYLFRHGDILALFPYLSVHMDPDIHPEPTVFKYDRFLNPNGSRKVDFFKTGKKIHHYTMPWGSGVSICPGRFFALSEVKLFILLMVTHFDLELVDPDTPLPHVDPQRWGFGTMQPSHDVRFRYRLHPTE
Format: biochemical
Procedure: Human Cyp8B1 Liver Microsome Assay To a 384 well polypropylene plate (Corning 3656), 250 nl of inhibitor in 100% DMSO (1.25% final DMSO concentration) was pre-plated using an Echo liquid handler (Labcyte Inc.). Human liver microsomes (Xenotech) were diluted in of 0.1 M phosphate buffer, pH 7.4, at a concentration of 65 μg/ml and 15 μL was added to the 384 well plate. The plates were incubated at ambient room temperature for 30 minutes. After pre-incubation with inhibitor, the reaction was initiated by adding 5 μl of substrate solution (4.0 μM 7α-hydroxy-4-cholesten-3-one(Toronto Research Chemicals), 2 mM of NADPH (Sigma), 0.1 M phosphate buffer (pH 7.4). The reaction was carried out for 45 minutes at ambient room temperature and was quenched by the addition of 50 μl of acetonitrile+0.1% vol/vol formic acid (FA)+300 nM 7α-hydroxy-4-cholesten-3-one-d7 (Toronto Research Chemicals). The plates were sealed and centrifuged at 3000 rpm for 5 minutes. Plates were loaded onto the Agilent RapidFire RF300 HTMS system, wherein samples were sipped for 600 ms, and the sip sensor detection signals the diversion of sample from the loop onto a C4 solid phase extraction (SPE) cartridge, where salts are washed off for 2500 ms with a mobile phase of water with 0.1% vol/vol FA at a flow rate of 1.5 ml/min. The column path is switched, and the sample is eluted off the cartridge and flowed into the mass spectrometer for 3000 ms with a mobile phase of acetonitrile and 0.1% vol/vol FA at a flow rate of 1.25 ml/min. The aspirator tip was washed separately with water and acetonitrile between sample aspirations (each for 600 ms) to minimize carryover contamination. Mass spectrometry was carried out using a Sciex API4000 triple quadrupole mass spectrometer (Applied Biosystems, Concord, ON, Canada) equipped with electrospray ionization (ESI) operated in the positive-ion mode. The product 7α, 12α-dihydroxy-4-cholesten-3-one and internal standard 7α-hydroxy-4-cholsten-3-one-d7 were detected using multiple reaction monitoring (MRM) with Q1/Q3 transitions at m/z 417.3 to 381.3 and m/z 408.3 to 390.3, respectively, with a dwell time of 100 ms and a collision energy of 24 V for each transition. The mass spectrometer used an ESI voltage of 5000 V and a source temperature of 650° C. Extracted ion chromatograms for each transition were integrated and processed using the RapidFire Integrator software. The data for each well were normalized by monitoring product conversion with the ratio of AUCproduct/(AUCinternal standard). The data was then fitted to a four parameter logistic fit using ActivityBase Software to calculate an IC50 of the inhibitor.

Going from `C[C@@H]1CN(c2c(Cl)c[n+]([O-])c3cc(C(F)(F)F)ccc23)CC[C@@H]1C(=O)N1CCn2c(nnc2C(F)(F)F)C1` [Example 40, {(3S,4S)-1-[3-chloro-1-oxido-7-(trifluoromethyl)quinolin-4-yl]-3-methylpiperidin-4-yl}[3-(trifluoromethyl)-5,6-dihydro[1,2,4]triazolo[4,3-a]pyrazin-7(8H)-yl]methanone] to `C[C@@H]1CN(c2c(Cl)cnc3cc(C(F)(F)F)ccc23)CC[C@@H]1C(=O)N1CCn2c(nnc2C(F)(F)F)C1` [Example 55, ((3S,4S)-1-(3-chloro-7-(trifluoromethyl)quinolin-4-yl)-3-methylpiperidin-4-yl)(3-(trifluoromethyl)-5,6-dihydro-[1,2,4]triazolo[4,3-a]pyrazin-7(8H)-yl)methanone], the IC50 falls from 800 pM to 200 pM (4-fold).

`COc1ccc2c(N3CC[C@H](C(=O)N4CCn5c(nnc5C(F)(F)F)C4)[C@H](C)C3)c(Cl)cnc2c1F` [Example 41, [(3S,4S)-1-(3-chloro-8-fluoro-7-methoxyquinolin-4-yl)-3-methylpiperidin-4-yl][3-(trifluoromethyl)-5,6-dihydro[1,2,4]triazolo[4,3-a]pyrazin-7(8H)-yl]methanone] and `C[C@@H]1CN(c2c(Cl)cnc3cc(Br)ccc23)CC[C@@H]1C(=O)N1CCn2c(nnc2C(F)(F)F)C1` [Example 42, [(3S,4S)-1-(7-bromo-3-chloroquinolin-4-yl)-3-methylpiperidin-4-yl][3-(trifluoromethyl)-5,6-dihydro[1,2,4]triazolo[4,3-a]pyrazin-7(81)-yl]methanone] are within 1.5-fold of each other in IC50: 380 pM for the first, 440 pM for the second.

Compared with `CC(=O)c1ccc2c(N3CC[C@H](C(=O)N4CCn5c(nnc5C(F)(F)F)C4)[C@H](C)C3)c(Cl)cnc2c1` [Example 43, 1-{3-chloro-4-[(3S,4S)-3-methyl-4-{[3-(trifluoromethyl)-5,6-dihydro[1,2,4]triazolo[4,3-a]pyrazin-7(8H)-yl]carbonyl}piperidin-1-yl]quinolin-7-yl}ethanone], `C[C@@H]1CN(c2c(Cl)cnc3cc(C(C)(F)F)ccc23)CC[C@@H]1C(=O)N1CCn2c(nnc2C(F)(F)F)C1` [Example 49, {(3S,4S)-1-[3-chloro-7-(1,1-difluoroethyl)quinolin-4-yl]-3-methylpiperidin-4-yl}[3-(trifluoromethyl)-5,6-dihydro[1,2,4]triazolo[4,3-a]pyrazin-7(8H)-yl]methanone] is 1.6-fold higher in IC50: 280 pM for the first, 460 pM for the second.

Compared with `C[C@@H]1CN(c2c(F)cnc3cc(C(F)(F)F)ccc23)CC[C@@H]1C(=O)N1CCn2c(nnc2C(F)(F)F)C1` [Example 45, {(3S,4S)-1-[3-fluoro-7-(trifluoromethyl)quinolin-4-yl]-3-methylpiperidin-4-yl}[3-(trifluoromethyl)-5,6-dihydro[1,2,4]triazolo[4,3-a]pyrazin-7(8H)-yl]methanone], `C[C@@H]1CN(c2c(F)cnc3cc(C(C)(F)F)ccc23)CC[C@@H]1C(=O)N1CCn2c(nnc2C(F)(F)F)C1` [Example 47, {(3S,4S)-1-[7-(1,1-difluoroethyl)-3-fluoroquinolin-4-yl]-3-methylpiperidin-4-yl}[3-(trifluoromethyl)-5,6-dihydro[1,2,4]triazolo[4,3-a]pyrazin-7(8H)-yl]methanone] is 2.3-fold higher in IC50: 250 pM for the first, 570 pM for the second.

First: C[C@@H]1CN(c2ccnc3cc(C(C)(F)F)ccc23)CC[C@@H]1C(=O)N1CCn2c(nnc2C(F)(F)F)C1 [Example 46, {(3S,4S)-1-[7-(1,1-difluoroethyl)quinolin-4-yl]-3-methylpiperidin-4-yl}[3-(trifluoromethyl)-5,6-dihydro[1,2,4]triazolo[4,3-a]pyrazin-7(8H)-yl]methanone]
Second: C[C@@H]1CN(c2ccnc3cc(C(F)F)ccc23)CC[C@@H]1C(=O)N1CCn2c(nnc2C(F)(F)F)C1 [Example 58, ((3S,4S)-1-(7-(difluoromethyl)quinolin-4-yl)-3-methylpiperidin-4-yl)(3-(trifluoromethyl)-5,6-dihydro-[1,2,4]triazolo[4,3-a]pyrazin-7(8H)-yl)methanone]
The IC50 of the first is 5.4-fold lower: 1100 pM for the first, 5970 pM for the second. The first is the more potent here.

Going from `C[C@@H]1CN(c2c(F)cnc3cc(Cl)ccc23)CC[C@@H]1C(=O)N1CCn2c(nnc2C(F)(F)F)C1` [Example 48, [(3S,4S)-1-(7-chloro-3-fluoroquinolin-4-yl)-3-methylpiperidin-4-yl][3-(trifluoromethyl)-5,6-dihydro[1,2,4]triazolo[4,3-a]pyrazin-7(8H)-yl]methanone] to `C[C@@H]1CN(c2c(F)cnc3cc(C(F)F)ccc23)CC[C@@H]1C(=O)N1CCn2c(nnc2C(F)(F)F)C1` [Example 56, ((3S,4S)-1-(7-(difluoromethyl)-3-fluoroquinolin-4-yl)-3-methylpiperidin-4-yl)(3-(trifluoromethyl)-5,6-dihydro-[1,2,4]triazolo[4,3-a]pyrazin-7(8H)-yl)methanone], the IC50 falls from 1700 pM to 460 pM (3.7-fold).

First: C[C@@H]1CN(c2c(Cl)cnc3cc(C4CC4)ccc23)CC[C@@H]1C(=O)N1CCn2c(nnc2C(F)(F)F)C1 [Example 50, [(3S,4S)-1-(3-chloro-7-cyclopropyl-quinolin-4-yl)-3-methylpiperidin-4-yl][3-(trifluoromethyl)-5,6-dihydro[1,2,4]triazolo[4,3-a]pyrazin-7(8H) - yl]methanone]
Second: C[C@@H]1CN(c2c(C(F)F)cnc3cc(C4CC4)ccc23)CC[C@@H]1C(=O)N1CCn2c(nnc2C(F)(F)F)C1 [Example 54, {(3S,4S)-1-[7-cyclopropyl-3-(difluoromethyl)quinolin-4-yl]-3-methylpiperidin-4-yl}[3-(trifluoromethyl)-5,6-dihydro[1,2,4]triazolo[4,3-a]pyrazin-7(81H)-yl]methanone]
The IC50 of the first is 2.4-fold lower: 250 pM for the first, 610 pM for the second. The first is the more potent here.

Compared with `C[C@@H]1CN(c2c(Cl)cnc3cc(OCC4CC4)ccc23)CC[C@@H]1C(=O)N1CCn2c(nnc2C(F)(F)F)C1` [Example 51], `C[C@@H]1CN(c2ccnc3cc(OCC4CC4)ccc23)CC[C@@H]1C(=O)N1CCn2c(nnc2C(F)(F)F)C1` [Example 53, {(3S,4S)-1-[7-(cyclopropylmethoxy)quinolin-4-yl]-3-methylpiperidin-4-yl}[3-(trifluoromethyl)-5,6-dihydro[1,2,4]triazolo[4,3-a]pyrazin-7(8H)-yl]methanone] is 16-fold higher in IC50: 220 pM for the first, 3600 pM for the second.

`Cc1cnc2cc(C(C)(F)F)ccc2c1N1CC[C@H](C(=O)N2CCn3c(nnc3C(F)(F)F)C2)[C@H](C)C1` [Example 52, {(3S,4S)-1-[7-(1,1-difluoroethyl)-3-methylquinolin-4-yl]-3-methylpiperidin-4-yl}[3-(trifluoromethyl)-5,6-dihydro[1,2,4]triazolo[4,3-a]pyrazin-7(8H)-yl]methanone] and `C[C@@H]1CC(c2c(Cl)cnc3cc(C(F)F)ccc23)CCN1C(=O)N1CCn2c(nnc2C(F)(F)F)C1` (stereo partly drawn) [Example 57, ((2R)-4-(3-chloro-7-(difluoromethyl)quinolin-4-yl)-2-methylpiperidin-1-yl)(3-(trifluoromethyl)-5,6-dihydro-[1,2,4]triazolo [4,3-a]pyrazin-7(8H)-yl)methanone] are within 1.5-fold of each other in IC50: 310 pM for the first, 320 pM for the second.

`C[C@@H]1CN(c2ccnc3c2CCN(C(=O)OC(C)(C)C)C3)CC[C@@H]1C(=O)N1CCn2c(nnc2C(F)(F)F)C1` [Example 59, tert-butyl 4-((3S,4S)-3-methyl-4-(3-(trifluoromethyl)-5,6,7,8-tetrahydro-[1,2,4]triazolo[4,3-a]pyrazine-7-carbonyl)piperidin-1-yl)-5,6-dihydro-1,7-naphthyridine-7(8H)-carboxylate] was tested, and the IC50 was 8200 pM.
